# Results published in paper PMC8622278, “The Effects of Structural Alterations in the Polyamine and Amino Acid Moieties of Philanthotoxins on Nicotinic Acetylcholine Receptor Inhibition in the Locust, Schistocerca gregaria” (Molecules, 2021).
# Where “and” joins values, the source holds several entries; their conditions need not be identical. Equal values may be shown once. Read-outs that look alike come from different tables or passages of the source.
# Legend:
# [1] = tested on: locust neuron nAChR; test: Whole-cell patch-clamp of locust mushroom body neurons, ACh-evoked currents; type: cell-based, Schistocerca gregaria; conditions: for Fold increase in potency vs PhTX-343, 1 s current / Fold increase in potency vs PhTX-343, peak current: IC50 PhTX-343 / IC50 analogue; for Cells in which potentiation of the ACh response was observed: co-application of 0.01 and 0.1 μM
# Experimental: Neuronal cells were harvested through dissection of adult desert locusts (Shistocerca gregaria) purchased from livefoods.com. Following 10 min of cold anaesthesia at 4 °C, the locusts were submerged in 70% ethanol and their heads removed by decapitation with dissection scissors. The front of the head capsule was removed to expose the mushroom body of the brain, which was extracted, cut into small pieces, and placed into a 1 mL Eppendorf tube with 200 μL of Rinaldi’s saline (135 mM NaCl, 25 mM KCl, 0.4 mM NaHCO3, 0.5 mM glucose, and 5 mM HEPES adjusted to pH 7.2 with NaOH) containing 0.5 mg/mL dispase and 2 mg/mL collagenase. After 15 min incubation at 36.5 °C, neurons were centrifuged at 800× g for 1 min at room temperature to form a pellet. The supernatant was removed and replaced with 200 μL locust culture medium (5:4 − DMEM + 10% FCS + 2 mM Gln: Schneider’s insect medium + 10 IU/mL penicillin + 20 μg/mL streptomycin). A total of 200 μL of culture medium was gently pipette-mixed with the pellet to create a suspension of cells, which were spread over poly-L-lysine-coated glass coverslips (5 × 20 mm) in 35 mm Petri dishes containing 2 mL locust culture medium. Petri dishes were incubated overnight at 36.5 °C in a 5% CO2 atmosphere.
# Experiments were conducted 16–24 h after neuron dissociation. Coverslips covered in locust neurons were placed into a patch-clamp perfusion chamber, and were then constantly perfused with locust saline solution (180 mM NaCl, 10 mM KCl, 2 mM CaCl2, 10 mM HEPES, and pH 7.2 with NaOH). Borosilicate glass patch pipettes (1B150F-4, World Precision Instruments, Hertfordshire, UK), pulled to ~5–10 MΩ with a P-97 Flaming/Brown micropipette puller (Sutter Instrument Co., Novato, CA, USA), were filled with caesium pipette solution (140 mM CsCl, 1 mM CaCl2, 1 mM MgCl2, 11 mM EGTA, and 5 mM HEPES, pH 7.2) and placed in a patch pipette holder mounted on the patch-clamp amplifier head stage. Patch-clamped cells were clamped at a holding potential (VH) of −75 mV. Whole-cell currents were monitored by using an Axopatch 200A patch-clamp amplifier (Molecular Devices, San Jose, CA, USA) and recorded with WinWCP V4.5.7 software (Dr John Dempster, Institute of Pharmacy & Biomedical Sciences, University of Strathclyde, Glasgow, UK). Test compounds were focally applied to cells as 1 s pulses using a DAD-12 superfusion system (ALA Scientific Instruments, Farmingdale, NY, USA). Between each application of test compounds, clamped cells were washed for 1 min with locust saline. […]
# A total of 100 μM acetylcholine (ACh) was applied to cells twice prior to (control) and once after the co-application of 100 μM ACh and PhTX analogue. Peak current and current after 1 s of application were measured using WinWCP, and then the percentage of control response values were generated by normalising responses to ACh + PhTX co-application to the ACh-only control response. GraphPad Prism 9 (GraphPad Software, San Diego, CA, USA) was used for data analysis, graph plotting, curve fitting, and statistical analysis. To estimate the ACh EC50, concentration–response data were fit by the Hill equation:(1) % maximum response=100/(1+10^(LogEC50−X)S) where X is the log of the ACh concentration and S is the Hill slope. Concentration–inhibition curves were generated by plotting the mean and standard error of the normalised current measurements against log antagonist concentration, and then IC50 values were estimated by fitting a non-linear regression curve by using the equation:(2) % control response=100/(1+10^(X−LogIC50)S) where X is the log of the concentration of the PhTX analogue and S is the Hill slope.
# [2] = tested on: rat α3β4 nAChRs; conditions: rat subtype α3β4; cited from earlier work
# [3] = tested on: rat α4β2 nAChRs; conditions: rat subtype α4β2; cited from earlier work
# [4] = tested on: human muscle-type nAChRs; design: method as in PMID 16892364; conditions: cited from earlier work
# [5] = inhibition of 100 μM ACh-evoked current after 1 s of activation, VH −75 mV, read-out: IC50 (95% CI), 1 s Current
# [6] = inhibition of 100 μM ACh-evoked peak current, VH −75 mV, read-out: IC50 (95% CI), Peak Current
# [7] = at both 0.01 and 0.1 μM, cells showing potentiation, 100 μM ACh
structure (smiles),measurement,setting,value
"CC(=O)OCC[N+](C)(C)C [ACh, acetylcholine]",EC50,"[1]; peak response, n = 11, read-out: EC50 of ACh-evoked whole-cell current",20300 nM
CCCC(=O)N[C@@H](CC1CCCCC1)C(=O)NCCCCCCCCCCCCN [Cha-PhTX-12],"Fold increase in potency vs PhTX-343, 1 s current",[1],471 fold
same,"Fold increase in potency vs PhTX-343, peak current",[1],> 5000 fold
same,IC50,"[1]; at −75 mV (abstract; 1 s current), read-out: IC50",1.71 nM
same,IC50,[1]; [5],1.7 nM
same,IC50,[1]; [6],7.5 nM
CCCC(=O)N[C@@H](CC1CCCCC1)C(=O)NCCCNCCCCNCCCN [Cha-PhTX-343],"Potentiation, % of the ACh control response, peak and 1 s current similar","[1]; 0.01 μM, cells showing potentiation, 100 μM ACh",about 145%
same,"Potentiation, % of the ACh control response, peak and 1 s current similar","[1]; 0.1 μM, cells showing potentiation, 100 μM ACh",~125%
same,"Fold increase in potency vs PhTX-343, 1 s current",[1],1.8 fold
same,"Fold increase in potency vs PhTX-343, peak current",[1],23 fold
same,Cells in which potentiation of the ACh response was observed,[1],12 out of 22
same,IC50,[1]; [5],440 nM
same,IC50,[1]; [6],1750 nM
same,IC50,[2],low nanomolar range
same,IC50,[3],low nanomolar range
same,Times more potent than PhTX-12,[4],> 10 times
same,Times more potent than PhTX-343,[4],> 100 times
CCCC(=O)N[C@@H](Cc1ccc(O)cc1)C(=O)NCCCCCCCCCCCCN [PhTX-12],"Fold increase in potency vs PhTX-343, 1 s current",[1],6.2 fold and ~ 6 fold
same,"Fold increase in potency vs PhTX-343, peak current",[1],34 fold
same,IC50,[1]; [5],130 nM
same,IC50,[1]; [6],1170 nM
"CCCC(=O)N[C@@H](Cc1ccc(O)cc1)C(=O)NCCCNCCCCNCCCN [PhTX-343, philanthotoxin-343, reference compound]","Mean potentiation, % of the ACh control response, 1 s current",[1]; [7],~300%
same,"Mean potentiation, % of the ACh control response, peak current",[1]; [7],around 200%
same,Cells in which potentiation of the ACh response was observed,[1],8 out of 23
same,IC50,[1]; [5],800 nM
same,IC50,[1]; [6],39800 nM
"COc1cc2c3cc1Oc1cc(ccc1O)C[C@@H]1c4c(cc(OC)c(O)c4Oc4ccc(cc4)C[C@@H]3N(C)CC2)CC[N+]1(C)C [d-tubocurarine, reference compound]",IC50,"[1]; co-applied 0.1 to 100 μM with 100 μM ACh, n = 11, read-out: IC50 for inhibition of 100 μM ACh current",2730 nM
same,Inhibition at the highest concentration,[1]; highest concentration (100 μM) co-applied with 100 μM ACh,complete inhibition
"CN1CCC[C@H]1c1cccnc1 [nicotine, reference compound]",Whole-cell current response compared with 100 μM ACh,"[1]; 100 μM, same neuron",smaller than that seen for ACh
